# ChEMBL document CHEMBL1909046, “DrugMatrix in vitro pharmacology data”
# Tested on: not listed separately
# Experiment: DRUGMATRIX: Potassium Channel [KATP] radioligand binding (ligand: [3H] Glyburide)
# Format: cell membranes, Membrane
# Settings: hit-t15; Not Active = under 50% inhibition at 10 µM
SMILES,IC50,Ki
COc1cccc2c1C(=O)c1c(O)c3c(c(O)c1C2=O)C[C@@](O)(C(=O)CO)C[C@@H]3O[C@H]1C[C@H](N)[C@@H](O)[C@H](C)O1 [EPIRUBICIN],Not Active,Not Active
C[C@]12CC[C@@H]3c4ccc(OC(=O)c5ccccc5)cc4CC[C@H]3[C@@H]1CC[C@@H]2O [ESTRADIOL BENZOATE],Not Active,Not Active
C[C@]12CC[C@@H]3c4ccc(O)cc4CC[C@H]3[C@@H]1CC[C@@H]2O [ESTRADIOL],Not Active,Not Active
CC[C@@H](CO)NCCN[C@@H](CC)CO [ETHAMBUTOL],Not Active,Not Active
CC1(C)O[C@@H]2C[C@H]3[C@@H]4C[C@H](F)C5=CC(=O)C=C[C@]5(C)[C@H]4[C@@H](O)C[C@]3(C)[C@]2(C(=O)CO)O1 [FLUNISOLIDE],Not Active,Not Active
CC1(C)O[C@@H]2C[C@H]3[C@@H]4C[C@H](F)C5=CC(=O)C=C[C@]5(C)[C@@]4(F)[C@@H](O)C[C@]3(C)[C@]2(C(=O)CO)O1 [FLUOCINOLONE ACETONIDE],Not Active,Not Active
CC1(C)O[C@@H]2C[C@H]3[C@@H]4C[C@H](F)C5=CC(=O)CC[C@]5(C)[C@H]4[C@@H](O)C[C@]3(C)[C@]2(C(=O)CO)O1 [FLURANDRENOLIDE],Not Active,Not Active
CN(C)c1ccc(C(=C2C=CC(=[N+](C)C)C=C2)c2ccc(N(C)C)cc2)cc1.[Cl-] [GENTIAN VIOLET],Not Active,Not Active
Cc1ccc(S(=O)(=O)NC(=O)NN2CC3CCCC3C2)cc1 (stereo not drawn) [GLICLAZIDE],Not Active,Not Active

# Target: Carbonic anhydrase 2 (Homo sapiens, UniProt P00918)
# Experiment: DRUGMATRIX: Carbonic Anhydrase II enzyme inhibition (substrate: 4-Nitrophenyl acetate (4-NPA))
# Format: tissue-based, Erythrocyte
# Settings: erythrocyte; Not Active = under 50% inhibition at 10 µM
row,SMILES,IC50
1,COc1cccc2c1C(=O)c1c(O)c3c(c(O)c1C2=O)C[C@@](O)(C(=O)CO)C[C@@H]3O[C@H]1C[C@H](N)[C@@H](O)[C@H](C)O1 [EPIRUBICIN],Not Active
2,C[C@]12CC[C@@H]3c4ccc(OC(=O)c5ccccc5)cc4CC[C@H]3[C@@H]1CC[C@@H]2O [ESTRADIOL BENZOATE],Not Active
3,C[C@]12CC[C@@H]3c4ccc(O)cc4CC[C@H]3[C@@H]1CC[C@@H]2O [ESTRADIOL],Not Active
4,CC[C@@H](CO)NCCN[C@@H](CC)CO [ETHAMBUTOL],Not Active
5,CC1(C)O[C@@H]2C[C@H]3[C@@H]4C[C@H](F)C5=CC(=O)C=C[C@]5(C)[C@H]4[C@@H](O)C[C@]3(C)[C@]2(C(=O)CO)O1 [FLUNISOLIDE],Not Active
6,CC1(C)O[C@@H]2C[C@H]3[C@@H]4C[C@H](F)C5=CC(=O)C=C[C@]5(C)[C@@]4(F)[C@@H](O)C[C@]3(C)[C@]2(C(=O)CO)O1 [FLUOCINOLONE ACETONIDE],Not Active
7,CC1(C)O[C@@H]2C[C@H]3[C@@H]4C[C@H](F)C5=CC(=O)CC[C@]5(C)[C@H]4[C@@H](O)C[C@]3(C)[C@]2(C(=O)CO)O1 [FLURANDRENOLIDE],Not Active
8,CN(C)c1ccc(C(=C2C=CC(=[N+](C)C)C=C2)c2ccc(N(C)C)cc2)cc1.[Cl-] [GENTIAN VIOLET],Not Active
9,Cc1ccc(S(=O)(=O)NC(=O)NN2CC3CCCC3C2)cc1 (stereo not drawn) [GLICLAZIDE],Not Active

# Tested on: not listed separately
# Experiment: DRUGMATRIX: Calcium Channel Type L, Benzothiazepine radioligand binding (ligand: [3H] Diltiazem)
# Format: cell membranes, Rattus norvegicus, Wistar, Brain, Membrane
# Settings: Not Active = under 50% inhibition at 10 µM
SMILES,IC50,Ki
COc1cccc2c1C(=O)c1c(O)c3c(c(O)c1C2=O)C[C@@](O)(C(=O)CO)C[C@@H]3O[C@H]1C[C@H](N)[C@@H](O)[C@H](C)O1 [EPIRUBICIN],Not Active,Not Active
C[C@]12CC[C@@H]3c4ccc(OC(=O)c5ccccc5)cc4CC[C@H]3[C@@H]1CC[C@@H]2O [ESTRADIOL BENZOATE],Not Active,Not Active
C[C@]12CC[C@@H]3c4ccc(O)cc4CC[C@H]3[C@@H]1CC[C@@H]2O [ESTRADIOL],Not Active,Not Active
CC[C@@H](CO)NCCN[C@@H](CC)CO [ETHAMBUTOL],Not Active,Not Active
CC1(C)O[C@@H]2C[C@H]3[C@@H]4C[C@H](F)C5=CC(=O)C=C[C@]5(C)[C@H]4[C@@H](O)C[C@]3(C)[C@]2(C(=O)CO)O1 [FLUNISOLIDE],Not Active,Not Active
CC1(C)O[C@@H]2C[C@H]3[C@@H]4C[C@H](F)C5=CC(=O)C=C[C@]5(C)[C@@]4(F)[C@@H](O)C[C@]3(C)[C@]2(C(=O)CO)O1 [FLUOCINOLONE ACETONIDE],Not Active,Not Active
CC1(C)O[C@@H]2C[C@H]3[C@@H]4C[C@H](F)C5=CC(=O)CC[C@]5(C)[C@H]4[C@@H](O)C[C@]3(C)[C@]2(C(=O)CO)O1 [FLURANDRENOLIDE],Not Active,Not Active
CN(C)c1ccc(C(=C2C=CC(=[N+](C)C)C=C2)c2ccc(N(C)C)cc2)cc1.[Cl-] [GENTIAN VIOLET],Not Active,Not Active
Cc1ccc(S(=O)(=O)NC(=O)NN2CC3CCCC3C2)cc1 (stereo not drawn) [GLICLAZIDE],Not Active,Not Active

# Target: Matrix metalloproteinase-9 (Homo sapiens, UniProt P14780);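 further: inhibition of isolated MMP-9 enzyme activity toward a synthetic peptide substrate, from the DrugMatrix protease screening panel; in other assays of this panel Not Active means under 50% inhibition at 10 µM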
# Sequence (P14780 whole entry): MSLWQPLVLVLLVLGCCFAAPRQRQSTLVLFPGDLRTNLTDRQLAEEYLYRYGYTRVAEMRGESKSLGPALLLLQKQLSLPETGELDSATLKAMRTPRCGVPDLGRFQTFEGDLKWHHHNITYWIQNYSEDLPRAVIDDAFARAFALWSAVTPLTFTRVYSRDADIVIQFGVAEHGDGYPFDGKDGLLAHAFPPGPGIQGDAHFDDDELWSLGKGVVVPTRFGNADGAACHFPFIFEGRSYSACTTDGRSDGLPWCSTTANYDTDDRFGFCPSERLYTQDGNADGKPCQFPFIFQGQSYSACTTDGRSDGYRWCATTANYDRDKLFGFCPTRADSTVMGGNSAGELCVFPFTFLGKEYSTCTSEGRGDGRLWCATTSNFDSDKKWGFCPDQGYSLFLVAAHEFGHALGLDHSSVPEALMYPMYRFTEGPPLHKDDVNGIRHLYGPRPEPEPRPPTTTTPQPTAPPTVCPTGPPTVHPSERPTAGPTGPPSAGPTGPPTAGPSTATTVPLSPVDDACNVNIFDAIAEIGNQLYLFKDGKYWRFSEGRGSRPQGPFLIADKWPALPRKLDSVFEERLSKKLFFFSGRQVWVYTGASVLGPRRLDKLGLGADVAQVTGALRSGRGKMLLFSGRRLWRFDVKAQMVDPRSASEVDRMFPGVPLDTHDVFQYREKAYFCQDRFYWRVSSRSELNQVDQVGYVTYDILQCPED
# Experiment: biochemical
# Format: cell-based
# Settings: not given
row,SMILES,IC50
1,COc1cccc2c1C(=O)c1c(O)c3c(c(O)c1C2=O)C[C@@](O)(C(=O)CO)C[C@@H]3O[C@H]1C[C@H](N)[C@@H](O)[C@H](C)O1 [EPIRUBICIN],Not Active
2,C[C@]12CC[C@@H]3c4ccc(OC(=O)c5ccccc5)cc4CC[C@H]3[C@@H]1CC[C@@H]2O [ESTRADIOL BENZOATE],Not Active
3,C[C@]12CC[C@@H]3c4ccc(O)cc4CC[C@H]3[C@@H]1CC[C@@H]2O [ESTRADIOL],Not Active
4,CC[C@@H](CO)NCCN[C@@H](CC)CO [ETHAMBUTOL],Not Active
5,CC1(C)O[C@@H]2C[C@H]3[C@@H]4C[C@H](F)C5=CC(=O)C=C[C@]5(C)[C@H]4[C@@H](O)C[C@]3(C)[C@]2(C(=O)CO)O1 [FLUNISOLIDE],Not Active
6,CC1(C)O[C@@H]2C[C@H]3[C@@H]4C[C@H](F)C5=CC(=O)C=C[C@]5(C)[C@@]4(F)[C@@H](O)C[C@]3(C)[C@]2(C(=O)CO)O1 [FLUOCINOLONE ACETONIDE],Not Active
7,CC1(C)O[C@@H]2C[C@H]3[C@@H]4C[C@H](F)C5=CC(=O)CC[C@]5(C)[C@H]4[C@@H](O)C[C@]3(C)[C@]2(C(=O)CO)O1 [FLURANDRENOLIDE],Not Active
8,CN(C)c1ccc(C(=C2C=CC(=[N+](C)C)C=C2)c2ccc(N(C)C)cc2)cc1.[Cl-] [GENTIAN VIOLET],Not Active
9,Cc1ccc(S(=O)(=O)NC(=O)NN2CC3CCCC3C2)cc1 (stereo not drawn) [GLICLAZIDE],Not Active

# Target: T1, Muscarinic acetylcholine receptor M2 (Homo sapiens, UniProt P08172); further: in other assays of this panel Not Active means under 50% inhibition at 10 µM
# T1 sequence (P08172 whole entry): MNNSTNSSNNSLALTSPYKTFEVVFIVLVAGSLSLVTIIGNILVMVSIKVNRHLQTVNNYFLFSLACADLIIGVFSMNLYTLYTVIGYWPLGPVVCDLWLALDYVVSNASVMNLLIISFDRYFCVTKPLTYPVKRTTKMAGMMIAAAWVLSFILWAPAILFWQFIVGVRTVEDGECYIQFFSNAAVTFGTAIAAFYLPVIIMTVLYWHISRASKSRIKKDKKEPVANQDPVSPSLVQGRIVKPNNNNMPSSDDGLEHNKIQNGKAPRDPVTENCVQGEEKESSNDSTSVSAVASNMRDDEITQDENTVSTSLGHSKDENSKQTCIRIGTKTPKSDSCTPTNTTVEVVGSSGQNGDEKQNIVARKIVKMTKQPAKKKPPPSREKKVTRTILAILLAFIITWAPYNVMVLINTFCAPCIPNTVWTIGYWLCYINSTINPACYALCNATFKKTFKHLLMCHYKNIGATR
# Experiment: not given
# Format: cell membranes, CHO-K1, Membrane
# Settings: cho-k1
row,SMILES,IC50
1,COc1cccc2c1C(=O)c1c(O)c3c(c(O)c1C2=O)C[C@@](O)(C(=O)CO)C[C@@H]3O[C@H]1C[C@H](N)[C@@H](O)[C@H](C)O1 [EPIRUBICIN],Not Active
2,C[C@]12CC[C@@H]3c4ccc(OC(=O)c5ccccc5)cc4CC[C@H]3[C@@H]1CC[C@@H]2O [ESTRADIOL BENZOATE],Not Active
3,C[C@]12CC[C@@H]3c4ccc(O)cc4CC[C@H]3[C@@H]1CC[C@@H]2O [ESTRADIOL],Not Active
4,CC[C@@H](CO)NCCN[C@@H](CC)CO [ETHAMBUTOL],Not Active
5,CC1(C)O[C@@H]2C[C@H]3[C@@H]4C[C@H](F)C5=CC(=O)C=C[C@]5(C)[C@H]4[C@@H](O)C[C@]3(C)[C@]2(C(=O)CO)O1 [FLUNISOLIDE],Not Active
6,CC1(C)O[C@@H]2C[C@H]3[C@@H]4C[C@H](F)C5=CC(=O)C=C[C@]5(C)[C@@]4(F)[C@@H](O)C[C@]3(C)[C@]2(C(=O)CO)O1 [FLUOCINOLONE ACETONIDE],Not Active
7,CC1(C)O[C@@H]2C[C@H]3[C@@H]4C[C@H](F)C5=CC(=O)CC[C@]5(C)[C@H]4[C@@H](O)C[C@]3(C)[C@]2(C(=O)CO)O1 [FLURANDRENOLIDE],Not Active
8,Cc1ccc(S(=O)(=O)NC(=O)NN2CC3CCCC3C2)cc1 (stereo not drawn) [GLICLAZIDE],Not Active

# Same assay, conditions: read-out: IC50
row,SMILES,IC50 [µM]
1,CN(C)c1ccc(C(=C2C=CC(=[N+](C)C)C=C2)c2ccc(N(C)C)cc2)cc1.[Cl-] [GENTIAN VIOLET],1.43

# Same assay, conditions: read-out: Ki
row,SMILES,Ki [µM]
1,CN(C)c1ccc(C(=C2C=CC(=[N+](C)C)C=C2)c2ccc(N(C)C)cc2)cc1.[Cl-] [GENTIAN VIOLET],0.508

# Target: T2, D(4) dopamine receptor (Homo sapiens, UniProt P21917)
# T2 sequence (P21917 whole entry): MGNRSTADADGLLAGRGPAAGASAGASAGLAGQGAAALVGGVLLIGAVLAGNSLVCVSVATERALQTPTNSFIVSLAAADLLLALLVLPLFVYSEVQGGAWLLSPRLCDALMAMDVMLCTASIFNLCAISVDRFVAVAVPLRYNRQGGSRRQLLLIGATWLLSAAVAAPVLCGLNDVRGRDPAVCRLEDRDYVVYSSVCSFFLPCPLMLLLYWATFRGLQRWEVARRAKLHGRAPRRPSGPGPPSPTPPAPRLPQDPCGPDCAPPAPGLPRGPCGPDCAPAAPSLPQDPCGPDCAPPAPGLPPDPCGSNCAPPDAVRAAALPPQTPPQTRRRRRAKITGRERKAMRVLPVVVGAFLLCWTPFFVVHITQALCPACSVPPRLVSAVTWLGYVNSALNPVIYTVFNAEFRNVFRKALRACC
# Experiment: DRUGMATRIX: Dopamine D4.2 radioligand binding (ligand: [3H] Spiperone)
# Format: cell membranes, Membrane
# Settings: cho-k1; Not Active = under 50% inhibition at 10 µM
row,SMILES,IC50
1,COc1cccc2c1C(=O)c1c(O)c3c(c(O)c1C2=O)C[C@@](O)(C(=O)CO)C[C@@H]3O[C@H]1C[C@H](N)[C@@H](O)[C@H](C)O1 [EPIRUBICIN],Not Active
2,C[C@]12CC[C@@H]3c4ccc(OC(=O)c5ccccc5)cc4CC[C@H]3[C@@H]1CC[C@@H]2O [ESTRADIOL BENZOATE],Not Active
3,C[C@]12CC[C@@H]3c4ccc(O)cc4CC[C@H]3[C@@H]1CC[C@@H]2O [ESTRADIOL],Not Active
4,CC[C@@H](CO)NCCN[C@@H](CC)CO [ETHAMBUTOL],Not Active
5,CC1(C)O[C@@H]2C[C@H]3[C@@H]4C[C@H](F)C5=CC(=O)C=C[C@]5(C)[C@H]4[C@@H](O)C[C@]3(C)[C@]2(C(=O)CO)O1 [FLUNISOLIDE],Not Active
6,CC1(C)O[C@@H]2C[C@H]3[C@@H]4C[C@H](F)C5=CC(=O)C=C[C@]5(C)[C@@]4(F)[C@@H](O)C[C@]3(C)[C@]2(C(=O)CO)O1 [FLUOCINOLONE ACETONIDE],Not Active
7,CC1(C)O[C@@H]2C[C@H]3[C@@H]4C[C@H](F)C5=CC(=O)CC[C@]5(C)[C@H]4[C@@H](O)C[C@]3(C)[C@]2(C(=O)CO)O1 [FLURANDRENOLIDE],Not Active
8,CN(C)c1ccc(C(=C2C=CC(=[N+](C)C)C=C2)c2ccc(N(C)C)cc2)cc1.[Cl-] [GENTIAN VIOLET],Not Active
9,Cc1ccc(S(=O)(=O)NC(=O)NN2CC3CCCC3C2)cc1 (stereo not drawn) [GLICLAZIDE],Not Active
